# Entries after “also recorded” stand apart in the source; their conditions may differ. Where a SMILES comes first, the peptide text is derived from it.
# How the values were obtained:
# [1] = Hematology, complete blood count; assay type: in vivo, female BALB/c mice; conditions: i.v. weekly for 3 weeks; DM1/DM1-Bdd 0.75 mg/kg, CIS 10 mg/kg
# Experimental: (§1) Necropsy—Seven- to 9-week-old female BALB/c mice (n=4/group) were treated weekly with PBS, DM1, DM1-peptide (0.75 mg/kg of drug content), or cisplatin (10 mg/kg) via tail-vein injection (150 μL). At the end of a 3-week treatment, mice were euthanized. The organs/tissues were harvested, fixed in 10% neutral buffered formalin for 2 days. Bones were decalcified in a formic acid solution (Surgipath Decalcifier I; Leica Biosystems, Weltzar, Germany). The samples were then embedded in paraffin, sectioned (5 μm), and stained with H&E for examination by an ACVP board certified anatomic pathologist.
# (§2) Hematology and biochemistry—Blood samples were collected via cardiac puncture. A complete blood count, including red blood cell, white blood cell, reticulocyte and platelet counts, with an automated differential leukocyte count, was performed using an IDEXX Procyte DX hematology analyzer (iDEXX, Westbrook. ME). Blood smears were prepared, stained with modified Wright's stain, examined in a blinded fashion by a board-certified veterinary clinical pathologist (T.S.), and imaged using a Nikon Eclipse TE2000-U fluorescent microscope equipped with a photometrics CoolSNAP HQ^2 camera (Nikon Corporation, Tokyo, Japan). The blood was also centrifuged (1,500×G) for 15 min to obtain the serum for biochemical analysis using a Beckman Coulter AU680 analyzer (Beckman Coulter, Brea, CA).
# Serum biochemistry = assay type: in vivo, female BALB/c mice; conditions: i.v. weekly for 3 weeks; DM1 0.75 mg/kg, CIS 10 mg/kg
# Text: as §1, with “At” for “Necropsy—Seven- to 9-week-old female BALB/c mice (n=4/group) were treated weekly with PBS, DM1, DM1-peptide (0.75 mg/kg of drug content), or cisplatin (10 mg/kg) via tail-vein injection (150 μL). At”
# as §2
# [2] = system: major organs (liver, spleen, heart, lungs, and kidneys); assay: Necropsy, histopathology of major organs; assay type: in vivo, female BALB/c mice; conditions: i.v. weekly for 3 weeks; DM1/DM1-Bdd 0.75 mg/kg, CIS 10 mg/kg
# Text: as §1, with “At” for “Necropsy—Seven- to 9-week-old female BALB/c mice (n=4/group) were treated weekly with PBS, DM1, DM1-peptide (0.75 mg/kg of drug content), or cisplatin (10 mg/kg) via tail-vein injection (150 μL). At”
# [3] = Fluorescence imaging of Cyanine5.5-labeled peptides (in vivo, ex vivo, urine); set-up: species or system Female SHO mice; conditions: i.v.
# Text: The animals were then euthanized.
# [4] = system: orthotopic human UMUC-3 tumors; assay: Therapeutic efficacy for treating BC, orthotopic UMUC-3/GFP-Luc xenograft; conditions: 5 mg/kg weekly
# Text: These animals were immediately euthanized I week after the completion of the treatment schedule.
# Slides were then counterstained with Hematoxylin.
# [5] = system: kidney injury molecule-1 (KIM-1) and neutrophil gelatinase-associated lipocalin (NGAL); assay: Nephrotoxicity studies, urinary renal injury biomarkers by ELISA; assay type: in vivo, BALB/c mice; conditions: single i.v. dose; 3 days
# Experimental: The level of the acute renal injury biomarkers, neutrophil gelatinase-associated lipocalin (NGAL) and kidney injury molecule-1 (KIM-1) in the urine samples, were measured using ELISA assays according to the manufacturer's instructions (R&D Systems, Minneapolis, MN). […] All the animals (n=3/group) were euthanized at the end of the treatment and the kidneys were collected and fixed in 10% neutral buffered formalin. The tissues were then processed, embedded in paraffin, sectioned, and stained with H&E. Immunohistochemistry (IHC) for kidney injury (NGAL and KIM-I) was also performed.
# [6] = μPET/CT imaging and biodistribution of ^89Zr-radiolabeled peptides; assay type: in vivo, BALB/c mice; conditions: i.v.
# Experimental: Radiochemistry—^89Zirconium (^89Zr) was supplied by 3DImaging LLC (Little Rock, AR). The ^89Zr-oxalate (500 μCi) was first neutralized with an equivalent volume of sodium carbonate solution (2 M), and then added to the DFO-peptides (0.2 mg, 250 μL). After incubation for 1.5 h at room temperature, the radiolabeled peptides (^89Zr-peptides) were purified by size exclusion chromatography using Sephadex G-25 gel to remove the free zirconium.
# μPET/CT imaging and biodistribution study—BALB/c mice were intravenously injected with different ^89Zr-peptide analogues (20 μCi, 100 μL). μLPET/CT imaging was performed in animals with and without urine collection prior to the first imaging (n=4/analogue/condition). Whole-body images were acquired 1, 4, and 24 h after injection, using Inveon μPET/CT scanner (Siemens Medical Solutions, Malvern, PA). μPET/CT maximum energy projections were processed using Amide v1.0.4 and Inveon Research Workplace software. The radioactivities at different region of interest (ROI) were determined. […] The radioactivities of the harvested organs were measured using the Wallac Wizard 2 gamma counter. The results were corrected from radioactive decay, and were expressed as a percentage of the injected dose (% ID) or percentage of injected dose per gram of tissue (% ID/g).
compound,measurement,setting,value
"N.N.[Cl][Pt][Cl] [CIS, cis-dichlorodiammine platinum(II)]","red blood cell, leukocyte, or platelet counts or morphologic features",[1],thrombocytopenia and lymphopenia
same,muscle injury (CK activity),Serum biochemistry,induced muscle injury (CK activity)
same,"histopathology of liver, spleen, heart, lungs, or kidneys",[2],"degeneration and necrosis of the proximal renal tubules, lung inflammation, and depletion of both erythrocytes and extramedullary hematopoiesis (EMH) in spleen"
CN1/C(=C/C=C/C=C/C2=[N+](CCCCCC(=O)NCCC(=O)N[C@@H](CCCCN)C(=O)N[C@@H](CC(=O)O)C(=O)NCCC(=O)N[C@@H](CCCCN)C(=O)N[C@@H](CC(=O)O)C(=O)NCCC(=O)N[C@@H](CCCCN)C(=O)N[C@@H](CC(=O)O)C(=O)NCCC(=O)N[C@@H](CCCCN)C(=O)N[C@@H](CC(=O)O)C(N)=O)c3ccc4ccccc4c3C2(C)C)C(C)(C)c2c1ccc1ccccc21 [Cy-BKD] (HELM PEPTIDE1{[CN1/C(=C/C=C/C=C/C2=[N+](CCCCCC(=O)[*:2])c3ccc4ccccc4c3C2(C)C)C(C)(C)c2c1ccc1ccccc21].[bAla].K.D.[bAla].K.D.[bAla].K.D.[bAla].K.D.[am]}$$$$V2.0),main uptake organ,[3],mainly taken up by the liver
CN1/C(=C/C=C/C=C/C2=[N+](CCCCCC(=O)NCCC(=O)N[C@@H](CCCCN)C(=O)N[C@@H](CCCCN)C(=O)NCCC(=O)N[C@@H](CCCCN)C(=O)N[C@@H](CCCCN)C(=O)NCCC(=O)N[C@@H](CCCCN)C(=O)N[C@@H](CCCCN)C(=O)NCCC(=O)N[C@@H](CCCCN)C(=O)N[C@@H](CCCCN)C(N)=O)c3ccc4ccccc4c3C2(C)C)C(C)(C)c2c1ccc1ccccc21 [Cy-BKK] (HELM PEPTIDE1{[CN1/C(=C/C=C/C=C/C2=[N+](CCCCCC(=O)[*:2])c3ccc4ccccc4c3C2(C)C)C(C)(C)c2c1ccc1ccccc21].[bAla].K.K.[bAla].K.K.[bAla].K.K.[bAla].K.K.[am]}$$$$V2.0),main uptake organ,[3],mainly taken up by the liver
"COc1cccc2c1C(=O)c1c(O)c3c(c(O)c1C2=O)C[C@@](O)(C(=O)CO)C[C@@H]3O[C@H]1C[C@H](N)[C@H](O)[C@H](C)O1 [DOX, Doxorubicin, reference compound]",body weight,[4],all the animals continuously losing weight
same,life expectancy compared to the PBS control / mortality,[4],shorter life expectancy compared to the PBS control; also recorded: died prior to receiving the final dose; also recorded: caused mortality
"Nc1ccn([C@@H]2O[C@H](CO)[C@@H](O)C2(F)F)c(=O)n1 [GEM, gemcitabine]","induction of KIM-1 and/or NGAL, 3 days",[5],continued induction of KIM-1 and/or NGAL
"CO[C@@]12[C@H](COC(N)=O)C3=C(C(=O)C(C)=C(N)C3=O)N1C[C@@H]1N[C@@H]12 [MIT, Mitomycin]","induction of KIM-1 and/or NGAL, 3 days",[5],continued induction of KIM-1 and/or NGAL
"CC(=O)N(O)CCCCCNC(=O)CCC(=O)N(O)CCCCCNC(=O)CCC(=O)N(O)CCCCCNC(=S)Nc1ccc(NC(=S)NCCC(=O)N[C@@H](CCCCN)C(=O)N[C@@H](CCCCN)C(=O)NCCC(=O)N[C@@H](CCCCN)C(=O)N[C@@H](CCCCN)C(=O)NCCC(=O)N[C@@H](CCCCN)C(=O)N[C@@H](CCCCN)C(=O)NCCC(=O)N[C@@H](CCCCN)C(=O)N[C@@H](CCCCN)C(N)=O)cc1 [^89Zr-BKK, metal not drawn] (HELM PEPTIDE1{[CC(=O)N(O)CCCCCNC(=O)CCC(=O)N(O)CCCCCNC(=O)CCC(=O)N(O)CCCCCNC(=S)Nc1ccc(NC(=S)[*:2])cc1].[bAla].K.K.[bAla].K.K.[bAla].K.K.[bAla].K.K.[am]}$$$$V2.0)",organ distribution,[6],delivered to the liver in addition to the URS
"Cyanine5.5 [free Cy, reference compound]",main uptake organ,[3],mainly taken up by the liver
NH2-(PEG3)DD-(PEG3)DD-(PEG3)DD-(PEG3)DD-CONH2 (SEQ ID NO:5) [PEG3DD],accumulation in kidneys over time,[6],initial increase
